Data taken from patent publication US20250177393A1, “MODULATORS OF MYC FAMILY PROTO-ONCOGENE PROTEIN” (Nalo Therapeutics, priority 2022, published 2025).
Like-named read-outs stand apart in the source and are kept apart here.

What was measured:
[1] = molecular target: T1, MycN (Homo sapiens, UniProt P04198); experiment: Degradation of MycN protein in SK-N-BE(2) cells (JESS/Western blot); type: cell-based; details: for Dmax at 0.5 µM: read-out: % Degradation of MycN (SKNBE2) 24 h, 0.5 μM; for Dmax at 1 µM: read-out: % Degradation of MycN (SKNBE2) 24 h, 1 μM; for Dmax at 3 µM: read-out: % Degradation of MycN (SKNBE2) 24 h, 3 μM; for Dmax at 6 µM: read-out: % Degradation of MycN (SKNBE2) 24 h, 6 μM
T1 construct: endogenous in cells; host or cells: SK-N-BE(2)
T1 sequence (P04198 1-464): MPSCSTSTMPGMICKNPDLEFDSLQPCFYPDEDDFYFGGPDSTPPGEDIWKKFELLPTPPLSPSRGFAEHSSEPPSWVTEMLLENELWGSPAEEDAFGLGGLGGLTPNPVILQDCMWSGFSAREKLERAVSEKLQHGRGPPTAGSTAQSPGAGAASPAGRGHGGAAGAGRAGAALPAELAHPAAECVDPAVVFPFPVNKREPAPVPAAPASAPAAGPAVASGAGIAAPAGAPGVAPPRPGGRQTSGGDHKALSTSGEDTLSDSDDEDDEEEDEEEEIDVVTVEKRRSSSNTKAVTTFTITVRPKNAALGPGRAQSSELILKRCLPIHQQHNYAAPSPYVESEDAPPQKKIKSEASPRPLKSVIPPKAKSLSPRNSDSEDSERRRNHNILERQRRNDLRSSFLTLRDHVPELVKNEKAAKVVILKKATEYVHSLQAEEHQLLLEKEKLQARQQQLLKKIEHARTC
Protocol: (§1) For L363 cells (suspension), 1E6 cells were plated into each well of a 6 well plate. For SK—N-BE(2) cells (adherent), 5E5 cells were plated into each well of a 6 well dish. […] All compounds were diluted to 10 mM in DMSO. Cells were treated with the compound for 24 hrs, then for both cell types, media containing cells were removed from wells into a 15 ml centrifuge tube, and remaining adherent SK—N-BE(2) cells were also scraped from the wells into the appropriate tubes. Tubes were centrifuged, cells were washed with PBS then re-centrifuged to pellet cells. A RIPA buffer cocktail was added to the cells on ice for 5 mins. Cell lysates were clarified by centrifugation and stored at −80 degrees until required. BCA assay was performed on each lysate to determine the protein concentration. For validation studies of antibodies, lysates and antibodies were used at a number of concentrations (Lysates: 2, 1, 0.2 mg/ml; Antibodies: 1 in 50, 1 in 200 dilution). Once an appropriate lysate concentration and antibody concentration was determined, samples were screened in the JESS technology (Protein Simple, San Jose, CA—https://www.proteinsimple.com/jess.html). Target protein antibodies (n-myc and c-myc) were detected in the chemiluminescence channel and loading controls (tubulin and GAPDH) were detected using a Near Infra Red (NIR) labeled secondary antibody. For SK—N-EB2 adherent cells, 5E5 cells in 1.9 mls media were plated into 6 well dishes and incubated for 24 hrs. […] Cells were scrapped off the plate, centrifuged, washed with PBS, centrifuged, then a RIPA buffer cocktail added to the cells (100 ul), centrifuged and stored at −80 for later analysis. For L363 suspension cells, 1E6 cells were plated into 24 well dishes (950 ul media) and incubated for 24 hrs. […] Cells were aspirated into tubes, centrifuged, washed with PBS, centrifuged, then a RIPA buffer cocktail added to the cells (100 ul), centrifuged and stored at −80 for later analysis. For Western blot, a BCA (total protein) assay was run on all samples, these were then run in batches of 5 compounds plus control (DMSO) on each Western blot run—n-myc and c-myc were run in separate experiments in the chemiluminescence channel. Both tubulin and GAPDH were run as loading controls in all lanes in the near infra red channel.

[2] = molecular target: T2, MycC (Homo sapiens, UniProt P01106); experiment: Degradation of MycC protein in L363 cells (JESS/Western blot); type: cell-based; details: for Dmax at 1 µM: read-out: % Degradation of MycC (L-363) 24 h, 1 μM; for Dmax at 3 µM: read-out: % Degradation of MycC (L-363) 24 h, 3 μM; for Dmax at 6 µM: read-out: % Degradation of MycC (L-363) 24 h, 6 μM; for Dmax at 0.5 µM: read-out: % Degradation of MycC (L-363) 24 h, 0.5 μM
T2 construct: endogenous in cells; host or cells: L363
Protocol: as §1

T2 sequence (P01106 whole entry): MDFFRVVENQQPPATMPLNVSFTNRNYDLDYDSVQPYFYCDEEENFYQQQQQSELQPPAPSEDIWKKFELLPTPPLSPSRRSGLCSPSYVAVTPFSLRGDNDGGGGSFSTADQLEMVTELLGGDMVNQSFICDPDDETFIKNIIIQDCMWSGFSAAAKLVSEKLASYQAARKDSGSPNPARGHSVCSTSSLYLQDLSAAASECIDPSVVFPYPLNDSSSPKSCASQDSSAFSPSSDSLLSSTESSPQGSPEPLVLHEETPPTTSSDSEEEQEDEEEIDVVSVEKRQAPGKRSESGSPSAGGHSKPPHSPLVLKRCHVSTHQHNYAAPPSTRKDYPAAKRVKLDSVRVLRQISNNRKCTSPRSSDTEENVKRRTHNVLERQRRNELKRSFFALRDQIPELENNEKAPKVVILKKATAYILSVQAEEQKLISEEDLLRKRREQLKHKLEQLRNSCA

| SMILES | Dmax at 0.5 µM ([1]; SKNBE2 cells, 24 h, 0.5 μM) [%] | Dmax at 1 µM ([1]; SKNBE2 cells, 24 h, 1 μM) [%] | Dmax at 3 µM ([1]; SKNBE2 cells, 24 h, 3 μM) [%] | Dmax at 6 µM ([1]; SKNBE2 cells, 24 h, 6 μM) [%] | Dmax at 1 µM ([2]; L-363 cells, 24 h, 1 μM) [%] | Dmax at 3 µM ([2]; L-363 cells, 24 h, 3 μM) [%] | Dmax at 6 µM ([2]; L-363 cells, 24 h, 6 μM) [%] | Dmax at 0.5 µM ([2]; L-363 cells, 24 h, 0.5 μM) [%] | Dmax at 0.5 µM ([1]; SKNBE2, 24 h) [%] | Dmax at 3 µM ([1]; SKNBE2, 24 h) [%] | Dmax at 6 µM ([1]; SKNBE2, 24 h) [%] | Dmax at 0.5 µM ([2]; L-363, 24 h) [%] | Dmax at 1 µM ([2]; L-363, 24 h) [%] | Dmax at 3 µM ([2]; L-363, 24 h) [%] | Dmax at 6 µM ([2]; L-363, 24 h) [%] | Dmax at 1 µM ([1]; SKNBE2, 24 h) [%] |
| --- | --- | --- | --- | --- | --- | --- | --- | --- | --- | --- | --- | --- | --- | --- | --- | --- |
| c1cc(Nc2cc(C3CC3)[nH]n2)nc(NC2CCC3(CC2)CNC3)n1 [Compound 33, N^4-(5-Cyclopropyl-1H-pyrazol-3-yl)-N^2-(2-azaspiro[3.5]nonan-7-yl)pyrimidine-2,4-diamine] | 20 to 49 | 20 to 49 | 80 to 100 | 80 to 100 | < 20 | 20 to 49 | 80 to 100 |  |  |  |  |  |  |  |  |  |
| F[C@@H]1CNCC[C@@H]1Nc1nccc(Nc2cc(C3CC3)[nH]n2)n1 [Compound 44, N^4-(5-Cyclopropyl-1H-pyrazol-3-yl)-N^2-[(3R,4S)-3-fluoro-4-piperidyl]pyrimidine-2,4-diamine] | < 20 | 20 to 49 | 20 to 49 | 50 to 79 | 20 to 49 | 20 to 49 | < 20 | < 20 |  |  |  |  |  |  |  |  |
| Cn1cc(C(=O)N2CC3(CC(Nc4nccc(Nc5cc(C6CCCC6)[nH]n5)n4)C3)C2)nn1 [Compound 39, (6-((4-((5-Cyclopentyl-1H-pyrazol-3-yl)amino)pyrimidin-2-yl)amino)-2-azaspiro[3.3]heptan-2-yl)(1-methyl-1H-1,2,3-triazol-4-yl)methanone] | 20 to 49 | < 20 | 80 to 100 | 80 to 100 | 20 to 49 | 20 to 49 | 80 to 100 | 20 to 49 |  |  |  |  |  |  |  |  |
| c1cc(Nc2cc(C3CCCC3)[nH]n2)nc(NC2CCNCC2)n1 [Compound 32, N^4-(5-cyclopentyl-1H-pyrazol-3-yl)-N^2-(piperidin-4-yl)pyrimidine-2,4-diamine] |  | 50 to 79 | 80 to 100 | 80 to 100 | 50 to 79 | 80 to 100 | 80 to 100 | 50 to 79 |  |  |  |  |  |  |  |  |
| c1cc(Nc2cc(C3CC3)[nH]n2)nc(NC2CCNCC2)n1 [Compound 29] |  | < 20 | 80 to 100 | 80 to 100 | 80 to 100 | 80 to 100 | 80 to 100 | 50 to 79 |  |  |  |  |  |  |  |  |
| CN1CC2(CCC(Nc3nccc(Nc4cc(C5CCCC5)[nH]n4)n3)CC2)C1 [Compound 20, N^4-(5-Cyclopentyl-1H-pyrazol-3-yl)-N^2-(2-methyl-2-azaspiro[3.5]nonan-7-yl)pyrimidine-2,4-diamine] | 80 to 100 | 80 to 100 | 80 to 100 | 80 to 100 | 80 to 100 | 80 to 100 | 80 to 100 | 80 to 100 |  |  |  |  |  |  |  |  |
| c1cc(Nc2cc(C3CC3)[nH]n2)nc(NC2CCOCC2)n1 [Compound 65, N4-(5-Cyclopropyl-1H-pyrazol-3-yl)-N2-tetrahydropyran-4-yl-pyrimidine-2,4-diamine] | 20 to 49 | 50 to 79 | 80 to 100 | 80 to 100 | 80 to 100 | 80 to 100 | 80 to 100 | 20 to 49 |  |  |  |  |  |  |  |  |
| c1cc(Nc2cc(C3CCCC3)[nH]n2)nc(NC2CC3(CNC3)C2)n1 [Compound 30, N^4-(5-cyclopentyl-1H-pyrazol-3-yl)-N^2-(2-azaspiro[3.3]heptan-6-yl)pyrimidine-2,4-diamine] | < 20 | < 20 |  | 50 to 79 | 80 to 100 | 80 to 100 | 80 to 100 | 80 to 100 |  |  |  |  |  |  |  |  |
| CN1CCC(Nc2nccc(Nc3cc(C4CCCC4)[nH]n3)n2)CC1 [Compound 31] |  |  |  |  |  |  |  |  | < 20 | 80 to 100 | 80 to 100 | 50 to 79 | 50 to 79 | 80 to 100 | 80 to 100 |  |
| CN1CCC(CNc2nccc(Nc3cc(C4CCCC4)[nH]n3)n2)CC1 [Compound 1] | 20 to 49 | < 20 | 20 to 49 | 80 to 100 |  | < 20 | < 20 |  |  |  |  |  |  |  |  |  |
| CN1CCC(C(=O)Nc2nccc(Nc3cc(C4CC4)[nH]n3)n2)CC1 [Compound 35, N-(4-((5-cyclopropyl-1H-pyrazol-3-yl)amino)pyrimidin-2-yl)-1-methylpiperidine-4-carboxamide] | 20 to 49 | < 20 | 20 to 49 | 20 to 49 |  | < 20 | < 20 |  |  |  |  |  |  |  |  |  |
| CN1CC2(CNc3nccc(Nc4cc(C5CC5)[nH]n4)n3)CC1C2 [Compound 4, N^4-(5-Cyclopropyl-1H-pyrazol-3-yl)-N^2-((2-methyl-2-azabicyclo[2.1.1]hexan-4-yl)methyl)pyrimidine-2,4-diamine] |  |  | < 20 | 20 to 49 | < 20 | 20 to 49 | < 20 |  |  |  |  |  |  |  |  |  |
| CN1CC2(CCC(Nc3nccc(Nc4cc(C5CC5)[nH]n4)n3)CC2)C1 [Compound 34, N^4-(5-cyclopropyl-1H-pyrazol-3-yl)-N^2-(2-methyl-2-azaspiro[3.5]nonan-7-yl)pyrimidine-2,4-diamine] | 80 to 100 | 80 to 100 | 80 to 100 | 80 to 100 | 50 to 79 | 80 to 100 | 80 to 100 | < 20 |  |  |  |  |  |  |  |  |
| c1cc(Nc2cc(C3CC3)[nH]n2)nc(NC2CC3(CNC3)C2)n1 [Compound 28, N^4-(5-cyclopropyl-1H-pyrazol-3-yl)-N^2-(2-azaspiro[3.3]heptan-6-yl)pyrimidine-2,4-diamine] |  |  |  | < 20 | < 20 | < 20 | 20 to 49 | < 20 |  |  |  |  |  |  |  |  |
| CN(CC12CNC(C1)C2)c1nccc(Nc2cc(C3CC3)[nH]n2)n1 [Compound 2, N^2-((2-Azabicyclo[2.1.1]hexan-4-yl)methyl)-N^4-(5-cyclopropyl-1H-pyrazol-3-yl)-N^2-methylpyrimidine-2,4-diamine] | 20 to 49 | < 20 | 20 to 49 | 50 to 79 |  |  |  |  |  |  |  |  |  |  |  |  |
| CN1CC[C@@H](Nc2nccc(Nc3cc(C4CC4)[nH]n3)n2)[C@@H](F)C1 [Compound 42, N4-(5-Cyclopropyl-1H-pyrazol-3-yl)-N2-[(3S,4R)-3-fluoro-1-methyl-4-piperidyl]pyrimidine-2,4-diamine] |  | 20 to 49 | 20 to 49 | 50 to 79 |  |  |  |  |  |  |  |  |  |  |  |  |
| c1cc(Nc2cc(C3CC3)[nH]n2)nc(NCC23CNC(C2)C3)n1 [Compound 3, N^2-((2-Azabicyclo[2.1.1]hexan-4-yl)methyl)-N^4-(5-cyclopropyl-1H-pyrazol-3-yl)pyrimidine-2,4-diamine] |  |  |  |  |  |  |  |  | < 20 | < 20 | 20 to 49 |  |  |  |  | < 20 |
